The text below walks through data of article PMC9791066, “Investigations into the antibacterial effects and potential mechanism of gambogic acid and neogambogic acid” (Frontiers in Microbiology, 2022).

≈ marks a conversion by molar mass, not a printed value. Read-outs that look alike come from different tables or passages of the source.

Assay [1] deals with T1, EfaUPPS (L91A) (Enterococcus faecalis, UniProt Q831K9, L97A).
T1 construct: His tag; made in house; host or cells: E. coli BL21(DE3)
Nature of the assay: UPPS inhibition assay, EfaUPPS L91A mutant. It counts as biochemical. To be noted: for effect of mutation on inhibitory effect of compound on EfaUPPS enzyme activity: L91A mutant compared with wild-type; for IC50 fold higher than that of the wild-type: L91A mutant vs wild-type (~3 μM). On the procedure: (§1) The EfaUPPS site-directed mutagenesis was generated using QuikChange site-directed mutagenesis kit (Agilent) according to the manufacturer’s instructions. The purification of site-directed mutation was using a similar strategy as described above.
(§2) The UPPS inhibition assay was carried out by measuring the fluorescence of the reaction mixture in a black 96-well microtiter plate (Corning, United States). […] After the indicated incubation period, the reaction was terminated by the addition of 10 μl of 0.5 M EDTA solution. Transferred 50 μl of the reaction mixture into a new 96-well microtiter plate, and quenched with an equal volume of Master Reaction Mix (Pyrophosphate Assay Kit, Sigma-Aldrich, USA) for 30 min. The UPPS inhibitory activity was performed by calculating the fluorescence percentage through determining the fluorescence absorbance of reaction mixture at 316 and 456 nm. Data of UPPS inhibitory activities were plotted versus compound concentrations on a semi-log scale using GraphPad Prism7. All the results were the means of at least three biological replicates.

Assay [2] deals with T2, EfaUPPS (R42A) (Enterococcus faecalis, UniProt Q831K9, R48A).
T2 construct: His tag; made in house; host or cells: E. coli BL21(DE3)
T2 sequence (Q831K9 whole entry R48A): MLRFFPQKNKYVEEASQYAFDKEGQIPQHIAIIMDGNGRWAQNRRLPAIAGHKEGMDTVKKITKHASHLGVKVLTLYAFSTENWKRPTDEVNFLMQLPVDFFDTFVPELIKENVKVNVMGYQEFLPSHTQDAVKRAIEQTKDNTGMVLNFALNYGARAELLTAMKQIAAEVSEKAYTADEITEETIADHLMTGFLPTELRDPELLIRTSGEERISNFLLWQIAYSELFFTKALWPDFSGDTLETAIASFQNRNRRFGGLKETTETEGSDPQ
Kind of assay: UPPS inhibition assay, EfaUPPS R42A mutant. It counts as biochemical. To be noted: for effect of mutation on inhibitory effect of compound on EfaUPPS enzyme activity: R42A mutant compared with wild-type. As for the experimental part: as §1, §2

Assay [3] deals with MRSA. Kind of assay: MIC, microtiter broth dilution. The note with it: Staphylococcus aureus, MRSA, 18 h. It counts as cell-based, Staphylococcus aureus. As for the experimental part: Antibacterial activities were performed by examining the minimal inhibitory concentrations (MICs), which was determined by a microtiter broth dilution method as previously described ([Cotsonas King and Wu, 2009]), with minor modifications. Briefly, 96-well plates (Corning) were inoculated with 100 μl of LB broth per well containing 7 × 10^5 CFU/mL bacteria, followed by adding 100 μl of LB broth containing two-fold serial dilutions of the test compounds. […] After 18 h of incubation, the MIC was determined to be the lowest concentration without visible bacterial growth. The results were the averages of at least three biological replicates.

The subject of assay [4] is clinical strains of S. aureus, E. faecalis, L. monocytogenes. Kind of assay: MIC against clinical isolates. The note with it: 10 more clinical strains of each species. The format is cell-based. The source says: Enterococcus faecalis ATCC29212 and Staphylococcus aureus ATCC29213 were purchased from the […]. Methicillin-resistant Staphylococcus aureus (MRSA), Listeria monocytogenes ATCC19117, Escherichia coli ATCC25922, Escherichia coli BAS849, DH5α and BL21 were from Lin lab storage. The clinical strains used in this study were isolated and identified from Affiliated Hospital of Nanjing University of Chinese Medicine and Nanjing Drum Tower Hospital, China. All the bacteria strains were routinely cultured in Luria-Bertani (LB) broth media (1% tryptone, 0.5% yeast extract, and 1% NaCl) at 37°C, except as noted.
Antibacterial activities were performed by examining the minimal inhibitory concentrations (MICs), which was determined by a microtiter broth dilution method as previously described ([Cotsonas King and Wu, 2009]), with minor modifications. Briefly, 96-well plates (Corning) were inoculated with 100 μl of LB broth per well containing 7 × 10^5 CFU/mL bacteria, followed by adding 100 μl of LB broth containing two-fold serial dilutions of the test compounds. Tetracycline (Tet) and ampicillin (Amp) and viridicatumtoxins were used as the positive controls. After 18 h of incubation, the MIC was determined to be the lowest concentration without visible bacterial growth. The results were the averages of at least three biological replicates.

Assay [5] concerns the target T3, WT EfaUPPS (Enterococcus faecalis, UniProt Q831K9).
T3 construct: His tag; made in house; host or cells: E. coli BL21(DE3)
Nature of the assay: Microscale thermophoresis binding assay, wild-type EfaUPPS. On the procedure: (§3) To characterize the binding affinity between EfaUPPS and GA or NGA, the MST binding assay was performed as previously described ([Lin et al., 2020]). In brief, His-tagged EfaUPPS and site-directed mutated EfaUPPS were labeled with the NT- 647-NHS dye using the Monolith NTTM Protein Labeling Kit RED-NHS (NanoTemper Technologies). Two-fold serially diluted GA or NGA was mixed with 10 nM of labeled EfaUPPS or its derivatives in 10 μl of binding buffer (137 mM NaCl, 2.7 mM KCl, 10 mM Na2HPO4, 1.8 mM KH2PO4, and 0.05% Tween-20, pH 7.8), incubated for 15 min, at room temperature. And then, loaded the mixtures into NT.115 premium coated capillaries (NanoTemper Technologies). MST trace signals were collected from the IR laser on to off for about 20 s, under the 5% LED power and high MST power mode. The change of molecular thermophoresis was monitored by standardized fluorescence value Fnorm, and the binding curve was plotted according to the values of Fnorm. The formed complex affinity was analyzed by MO Affinity Analysis software version 2.3. Apparent dissociation constants (Kd) were calculated using nonlinear fitting assuming one specific binding site with the GraphPad Prism 7 software with the following formula: Y = B^∗Max X/KD + X.
(§4) (^∗ where BMax is the maximum theoretical specific binding; here BMax = 1).

In assay [6] the target is T1, EfaUPPS (L91A). Kind of assay: Microscale thermophoresis binding assay, EfaUPPS L91A. The note with it: MST, no binding. As for the experimental part: as §3, §4
On the technique in general: Microscale thermophoresis detects binding through changes in fluorescence in a small temperature gradient.

Broadly, the IC50 is the concentration at which inhibition is half-maximal. Usually MIC stands for the lowest concentration found to suppress growth. As a reminder, the Kd is a measure of binding affinity in units of concentration.

T1 sequence (Q831K9 whole entry L97A): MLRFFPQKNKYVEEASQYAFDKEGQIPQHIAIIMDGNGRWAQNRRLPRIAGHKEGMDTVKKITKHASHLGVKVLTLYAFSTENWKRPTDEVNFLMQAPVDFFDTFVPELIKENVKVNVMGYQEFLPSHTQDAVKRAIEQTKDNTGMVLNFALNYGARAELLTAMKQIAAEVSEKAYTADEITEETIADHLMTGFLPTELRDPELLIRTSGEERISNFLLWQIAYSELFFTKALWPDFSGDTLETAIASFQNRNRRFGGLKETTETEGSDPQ
T3 sequence (Q831K9 whole entry): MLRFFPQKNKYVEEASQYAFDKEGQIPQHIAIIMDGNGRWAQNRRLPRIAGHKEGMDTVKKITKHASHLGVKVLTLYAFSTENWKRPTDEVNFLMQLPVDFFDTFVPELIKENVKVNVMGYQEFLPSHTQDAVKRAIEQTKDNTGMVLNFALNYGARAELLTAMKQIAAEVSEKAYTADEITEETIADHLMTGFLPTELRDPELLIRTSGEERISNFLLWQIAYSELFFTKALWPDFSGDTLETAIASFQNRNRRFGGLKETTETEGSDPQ

Regarding `CC(C)=CCC[C@]1(C)C=Cc2c(O)c3c(c(CC=C(C)C)c2O1)O[C@]12C(=C[C@@H]4C[C@H]1C(C)(C)O[C@@]2(C/C=C(/C)C(=O)O)C4=O)C3=O` [GA, gambogic acid], in assay [1], the IC50 is around 30 µM, the “effect of mutation on inhibitory effect of compound on EfaUPPS enzyme activity” value is on record as “significantly decreased” and the “IC50 fold higher than that of the wild-type” value is “about 10 fold”. In assay [2], the IC50 worked out at 5.39 µM and the “effect of mutation on inhibitory effect of compound on EfaUPPS enzyme activity” value is “does not have significant impact”. Moreover, the MIC in assay [3] (LB broth, read-out: MIC) turned out to be 4 µg/mL (≈ 6.36 µM). In assay [4], the “growth inhibitory activity (MICs) against clinical strains” value is “high potency in growth inhibitory activity”. The Kd in assay [5] (MST, WT EfaUPPS, read-out: Kd) was 29 ± 8.03 µM. In addition, in assay [6], the Kd was above 50000 µM.

On to `CC(C)=CCC[C@]1(C)CC(O)c2c(O)c3c(c(CC=C(C)C)c2O1)O[C@]12C(=C[C@@H]4C[C@H]1C(C)(C)O[C@@]2(C/C=C(/C)C(=O)O)C4=O)C3=O` (stereo partly drawn) [NGA, neogambogic acid], for which, in assay [1], the IC50 is around 30 µM, the “effect of mutation on inhibitory effect of compound on EfaUPPS enzyme activity” value was “significantly reduced” and the “IC50 fold higher than that of the wild-type” value is on record as “about 10 fold”. In assay [2], the “effect of mutation on inhibitory effect of compound on EfaUPPS enzyme activity” value is listed as “significantly reduced”. In assay [3], this molecule came in with an MIC of 4 µg/mL (≈ 6.18 µM). For the same molecule, the “growth inhibitory activity (MICs) against clinical strains” value in assay [4] is “high potency in growth inhibitory activity”. Further, in assay [5], the equilibrium dissociation constant (Kd) came to 5.61 ± 2.16 µM. In assay [5] (WT EfaUPPS, NGA vs GA), the “Kd fold lower than that for GA” value is given as “about 5 fold”. This molecule also registered a Kd in assay [6] above 50000 µM.
